Experimental data as given in paper PMC9220111, “Pharmacokinetics and Pharmacodynamics of Colistin Methanesulfonate in Healthy Chinese Subjects after Multi-Dose Regimen” (Antibiotics, 2022).
Like-named read-outs stand apart in the source and are kept apart here. Positions of bridges follow the written chain, without caps; N, C: chain ends. Non-standard residues stand in square brackets, D forms with d. Residues, ends and D or L forms follow the SMILES beside them. *: point of attachment. X1 = CC[C@H](C)CCCCC(=O)*; Dab = NCC[C@H](N)C(=O)O

Assays:
[1] = Urine excretion of CMS and colistin after multi-dose intravenous infusions of CMS; format: in vivo; details: human, 12 subjects, mean ± SD, read-out: Cumulative urine excretion rate within 0–24 h
Protocol: Urine samples (700 μL) were mixed with equal volume of 1% bovine serum albumin (BSA) prior and stored at −70 ± 10 °C until analysis.

[2] = cited from earlier work
Protocol: CMS in clinic has generally been expressed as the internationally accepted term of c ... || A new CMS formula was produced with a 4:1 ratio of CMS A:CMS B, and met the requirements of the European Pharmacopoeia EP9.2 [9]. […] The Cavg,ss (95% CI) was 0.92 (0.85, 0.99) μg/mL after 7 days of 2.5 mg/kg CBA every 12 h (q12 h) administration of this new formulation, as simulated by the obtained single-dose PK parameters. The purpose of this study was to investigate the PK characteristics of CMS and colistin in plasma and urine following multip ... || This study evaluated the applicability of CMS at the recommended dosing regimen (2.5 mg/kg CBA q12 h) for the first time in Chinese subjects.

[3] = Plasma pharmacokinetics of CMS and colistin after multi-dose intravenous infusions of CMS; details: for CLr: renal clearance; for clearance: CLt; for Cmax: healthy Chinese subjects, UPLC-MS/MS
Protocol: A single-center, open-label, multi-dose trial design was conducted following multiple intravenous administrations of CMS in 12 healthy Chinese subjects.
The dose regimen was 2.5 mg/kg CBA for 7 consecutive days with 12 h between each administration, except for one dose on day 1 (first dose) and day 7 (last dose). Each intravenous infusion time was 90 ± 10 min.
The blood samples were collected on day 1 and day 7 at pre-dose during intravenous infusion (30 min and 60 min after the start of intravenous infusion), immediately after the end of intravenous infusion (1.5 h) and at 1.75 h, 2 h, 2.5 h, 3.5 h, 5 h, 7 h, 9 h, 12 h, 16 h and 24 h after the start of intravenous infusion. From day 2 to day 6, blood samples were collected before and immediately after the end of infusion of the first dose. All blood samples were collected and transferred into an EDTA-K2 tube, and were then centrifuged at 3500 rpm for 10 min at 4 °C. Within 1 h after blood collection, the plasma samples were stored at −70 ± 10 °C until analysis [10].
The concentrations of CMS and colistin in plasma and urine samples were analyzed with a verified ultra-performance liquid chromatography tandem mass spectrometry method [30]. To determine the free colistin concentration, the matrix was alkalized with 5% ammonia at 0–4 °C, and CMS concentrations were obtained with acid hydrolysis, and then loaded onto the Oasis weak cation exchange 96-well plate (WCX, Waters, Milford, MA, USA). The standard curves of colistin A/colistin B for the plasma and urine samples ranged from 0.0446/0.0332–4.46/3.32 μg/mL to 0.0223/0.0166–2.23/1.66 μg/mL [10], respectively. The concentrations of colistin and CMS were determined as the major components of colistin A+ colistin B and colistin A methanesulfonate (CMS A) + colistin B methanesulfonate (CMS B), respectively.
The PK parameters of CMS and colistin in plasma were calculated by the non-compartment model [23] using the WinNonlin8.0 software (Pharsight, Mountain View, CA, USA). […] The urine excretion rate was calculated according to the correction of renal clearance (CLr). The PK parameters in urine samples calculated included interval urinary excretion rate, cumulative urinary excretion rate and CLr.
The PK parameters were expressed as average ± standard deviation (mean ± SD). The main PK parameters after the first and last doses were evaluated by paired t test (SAS 9.4, SAS Institute, Inc., Cary, NC, USA). p value ≤ 0.05 was considered as significant.

[4] = tested on: extremely drug-resistant (XDR) P. aeruginosa; details: cited from earlier work
[5] = value used to calculate fAUC0–24; cited from earlier work
Protocol: The target values of fAUC0–24/MIC used in this study were from published PK/PD study reports of colistin, conducted on animal infection models. […] The free colistin fraction f used was 50% [6, 31]. AUC0–24,ss values from this study were calculated as 2 times AUC0–12 on day 7 based on the twi ...

[6] = earlier CMS formula, CMS A:CMS B 1:2, healthy Chinese subjects
[7] = Day 7 (last dose, steady state), CMS 2.5 mg/kg CBA i.v. q12 h 7 days, plasma, mean ± SD, n = 12, SD
[8] = human, plasma, iv, 2.5 mg/kg CBA, Day 1 (first dose), CMS 2.5 mg/kg CBA i.v., mean ± SD, n = 12, SD
[9] = human, plasma, iv, 2.5 mg/kg CBA, Day 7 (last dose, steady state), CMS 2.5 mg/kg CBA i.v. q12 h 7 days, mean ± SD, n = 12, SD
[10] = human, plasma, iv, 2.5 mg/kg CBA, SD
[11] = 33 patients with XDR P. aeruginosa UTIs

Q: Which results are given for `CC[C@H](C)CCCCC(=O)N[C@@H](CCN)C(=O)N[C@H](C(=O)N[C@@H](CCN)C(=O)N[C@H]1CCNC(=O)[C@H]([C@@H](C)O)NC(=O)[C@H](CCN)NC(=O)[C@H](CCN)NC(=O)[C@H](CC(C)C)NC(=O)[C@@H](CC(C)C)NC(=O)[C@H](CCN)NC1=O)[C@@H](C)O` [colistin] (X1-[Dab]T[Dab][Dab][Dab][dL]L[Dab][Dab]T; lactam 4-C)?
A: dose excreted ([1]; after the first dose, CMS 2.5 mg/kg CBA i.v., day 1 urine stored without BSA, for reference only): 0.41 ± 0.28%; dose excreted ([1]; urine, 2.5 mg/kg CBA, after the last dose (steady state), CMS 2.5 mg/kg CBA i.v. q12 h 7 days): 1.22 ± 0.7%; plasma Cavg,ss of colistin ([2]; 51 critically ill patients with normal renal function (CLCr ≥ 80 mL/min), FDA-recommended dose 2.5–5 mg CBA/kg): 1.29 (0.45–5.28) μg/mL; median Cavg,ss concentration ([2]; 87 critically ill patients with CrCL >120 mL/min, loading dose 9 MIU then 4.5 MIU twice daily): 1.6 (0.4–4.8) μg/mL; median concentration (plasma Cavg,ss of colistin) ([2]; 214 patients with different renal functions): 2.35 (0.24–9.92) μg/mL; AUC0–12,ss [2, 6]: 9230 ± 1790 ng·h/mL; Cavg,ss [2, 6]: 760 ± 151 ng/mL; AUC0–12,ss ([2]; healthy Japanese subjects, CMS 2.5 mg/kg CBA i.v. twice a day for 2.5 days): 25700 ± 7490 ng·h/mL; Patients achieving Cavg,ss at ≥1 μg/mL ([2]; patients with normal renal function at the recommended doses of EMA and FDA): 65–75%; Cavg,ss (95% CI) ([2]; simulated from single-dose PK parameters, 7 days of 2.5 mg/kg CBA q12 h of the new formulation): 0.92 (0.85, 0.99) μg/mL; CLr ([3]; Day 1 (first dose), CMS 2.5 mg/kg CBA i.v., mean ± SD, n = 12, day 1 urine stored without BSA, for reference only, SD): 0.013 ± 0.0067 mL/min/kg; CLr ([3]; Day 7 (last dose), CMS 2.5 mg/kg CBA i.v. q12 h 7 days, mean ± SD, n = 12, SD): 0.025 ± 0.012 mL/min/kg; Cavg,ss [3, 7]: 1270 ± 270 ng/mL; Cmin,ss [3, 7]: 670 ± 220 ng/mL; AI (accumulation index) ([3]; Day 7, after 7 consecutive days of CMS 2.5 mg/kg CBA i.v. q12 h, mean ± SD, n = 12, SD): 1.32 ± 0.06; AUC(0-t) ([3]; human, plasma, iv, 2.5 mg/kg CBA, AUC0–12 (AUC0–12,ss), Day 7 (last dose, steady state), CMS 2.5 mg/kg CBA i.v. q12 h 7 days, plasma, mean ± SD, n = 12, SD): 15300 ± 3290 ng·h/mL; AUC(0-t) ([3]; human, plasma, iv, 2.5 mg/kg CBA, AUC0–12, Day 1 (first dose), CMS 2.5 mg/kg CBA i.v., plasma, mean ± SD, n = 12, SD): 9800 ± 1710 ng·h/mL; AUC(0-t) ([3]; human, plasma, iv, 2.5 mg/kg CBA, AUC0–24, Day 1 (first dose), CMS 2.5 mg/kg CBA i.v., plasma, mean ± SD, n = 12, SD): 12600 ± 2550 ng·h/mL; clearance [3, 8]: 3.5 mL/min/kg; clearance [3, 9]: 3 mL/min/kg; Cmax ([3]; human, plasma, iv, 2.5 mg/kg CBA, Day 1 (first dose), CMS 2.5 mg/kg CBA i.v. infusion 90 min, plasma, non-compartment model, mean ± SD, n = 12, SD): 1170 ± 180 ng/mL; Cmax ([3]; human, plasma, iv, 2.5 mg/kg CBA, Day 7 (last dose, steady state), CMS 2.5 mg/kg CBA i.v. q12 h 7 days, plasma, mean ± SD, n = 12, SD): 1790 ± 370 ng/mL; half-life ([3]; human, plasma, iv, 2.5 mg/kg CBA, T1/2, Day 1 (first dose), CMS 2.5 mg/kg CBA i.v., plasma, mean ± SD, n = 12, SD): 5.15 ± 0.95 h; half-life ([3]; human, plasma, iv, 2.5 mg/kg CBA, T1/2, Day 7 (last dose), CMS 2.5 mg/kg CBA i.v. q12 h 7 days, plasma, mean ± SD, n = 12, SD): 5.9 ± 0.58 h; half-life ([3]; human, plasma, iv, 2.5 mg/kg CBA, T1/2, median, after the first dose, median, n = 12): 4.97 h; half-life ([3]; human, plasma, iv, 2.5 mg/kg CBA, T1/2, median, after the last dose, median, n = 12): 6.1 h; Tmax ([3]; human, plasma, iv, 2.5 mg/kg CBA, Day 1 (first dose), CMS 2.5 mg/kg CBA i.v., plasma, mean ± SD, n = 12, SD): 4.42 ± 0.9 h; Tmax ([3]; human, plasma, iv, 2.5 mg/kg CBA, Day 7 (last dose), CMS 2.5 mg/kg CBA i.v. q12 h 7 days, plasma, mean ± SD, n = 12, SD): 3.38 ± 0.68 h; Tmax ([3]; human, plasma, iv, 2.5 mg/kg CBA, median, after the first dose, median, n = 12): 5 h; Tmax ([3]; human, plasma, iv, 2.5 mg/kg CBA, median, after the last dose, median, n = 12): 3.5 h; Vd [3, 8]: 1.52 ± 0.22 L/kg; Vd [3, 9]: 1.66 ± 0.25 L/kg; level at 48 h [3, 10]: 93 ± 42.8 ng/mL; level at 72 h [3, 10]: 632 ± 155 ng/mL; level at 96 h [3, 10]: 684 ± 177 ng/mL; level at 120 h [3, 10]: 738 ± 217 ng/mL; level at 144 h [3, 10]: 754 ± 238 ng/mL; AUC0–24/MIC [4, 11]: 60.5 ± 56.4; fAUC0–24/MIC [4, 11]: 30.2 ± 28.2; Cavg,ss ([4]; patients with XDR P. aeruginosa UTIs): 1.19 (0.21–5.20) μg/mL; free colistin fraction f [5]: 50%
